Measured values taken from patent publication US4786639A, “Method for the treatment of reversible airways obstruction and asthma” (Beecham Group p.l.c., priority 1984, dated 1988).
≈ marks a conversion by molar mass, not a printed value. Where two headings read alike, the source gives them in different places.

What was measured:
[1] = tested on: Rabbit isolated mesenteric artery; assay: Rabbit isolated mesenteric artery: relaxation of contractions due to KCl; design: species or system rabbit (male New Zealand White); settings: for IC50: Oryctolagus cuniculus, 4-9 tissues
Method: (2) Rabbit isolated mesenteric artery. Mesenteric arteries (3 mm rings) were removed from male New Zealand White rabbits and mounted, at a resting tension of 1.5-2.0 g, in a 10 ml organ bath containing a Ringer solution, at 37° C., of the following composition (mM): NaCl 120.8; KCl 5.9; CaCl2 2.5; MgCl2 1.2; HEPES 5.8; glucose 11.5. The bathing solution was bubbled with a 95% oxygen and 5% carbon dioxide mixture. Each preparation was allowed 1-11/2 h to equilibrate before the addition of either 30 or 90 mM KCl to contract the tissue. The ability of test compound to relax the sustained contraction due to KCl was determined by assessing the % reduction (mean ±s.e.m.; 4-9 tissues) produced by varying concentrations of test compound.
(2) Rabbit Isolated Mesenteric Artery: effect of compound 1 on contractions due to 30 and 90 mM KCl.
IC50 is the concentration of compound 1 halving the contraction due to KCl; parenthesis indicate 95% fiducial limits.

Rat isolated colon = assay: Rat isolated colon: inhibition of spontaneous contractions; design: species or system rat (male Wister); settings: 10 min, cumulative dosing at 10 min intervals, graphically determined, read-out: ID50 (concentration reducing amplitude of spontaneous contractions by 50%)
Method: Rat isolated colon. Male Wister rats (Charles River U.K.) were killed by a blow on the head and a 2 cm segment of proximal colon excised. After gently washing free any luminal contents the tissue was suspended longitudinally in a 10 ml organ bath containing Krebs solution of the following composition: NaCl 118.1 mM, KH2 PO4 1.18 mM, NaHCO3 25 mM, KCl 4.69 mM, MgSO4 1.64 mM, CaCl2 2.52 mM, Glucose 11.1 mM. This solution was maintained at 37° C. and constantly bubbled with 95% O2 : 5% CO2. Isometric contractions were recorded from the tissue with an initial tension of 1 g being applied.
The inhibitory effects of compounds 1+2 were assessed from the reduction in amplitude of the spontaneous contractions of the colon. Cumulative dose-response curves were constructed with the compounds being applied to the bath at intervals of 10 mins. ID50 (concentration of drug reducing amplitude of contractions by 50%) was graphically determined from the dose-response curve.
Rat isolated colon : effect of compounds 1 and 2 on spontaneous contractions

[2] = tested on: potassium depolarised rat uterus; assay: Relaxation of potassium depolarised rat uterus; design: species or system rat (female Sprague Dawley); settings: 7 preparations, relative to full relaxation with isoprenaline, read-out: % maximum relaxation
Method: Relaxation of Potassium Depolarised Rat Uterus
Female Sprague Dawley rats (120-160 g) were sacrificed and the uterine horns removed. Each horn was cut longitudinally to give a sheet of muscle which was further subdivided to give two preparations (i.e. 4 from each animal). Each tissue was mounted in a 10 ml organ bath containing normal Krebs buffer at 32° C. and gassed with 95% O2 -5% CO2. During an equilibration period of approximately 45 min the tissues were repeatedly stretched and washed to maintain a resting tension of 0.2 g. An increase in tension was induced by exchanging the Krebs buffer for one in which the sodium ions were replaced by the equivalent amount of potassium ions.
This caused the tissues to contract followed by a slow relaxation which equilibrated at a level above the initial resting level. A cumulative concentration effect curve to compound 1 was then carried out until the response to the final bath concentration (10^-4 M) had stabilised. Incremental concentrations of isoprenaline were then added until the tissues had fully relaxed. Results are expressed as a percentage of this maximum relaxation.
7 preparations were used.

conscious guinea-pig = assay: Guinea pig asphyxic collapse model in vivo (histamine aerosol); design: species or system guinea pig (female Dunkin-Hartley); settings: 5 mg/kg p.o., 30 min pretreatment, control 90 ± 10
From the text: This model is based on the method described by Herxheimer (Br.J.Pharm.50, 314 (1974)]. Conscious female guinea pigs (Dunkin-Hartley strain, 500-700 g body weight) were placed individually into a Perspex chamber of approximately 8 litres capacity, and the animals were challenged with an histamine aerosol. The standard histamine aerosol was generated using a Monaghan 675 ultrasonic nebulizer (power setting 7) from a 5×10^-5 m solution of histamine acid phosphate in distilled water. After obtaining satisfactory aerosol generation, the aerosol was passed into the chamber for 10 seconds and the time was recorded from introduction of the aerosol until the guinea pig collapsed (termed asphyxic collapse). The animal was rapidly removed and allowed to recover. In this way, the mean time to asphyxic collapse for a group of guinea pigs was determined.
Compounds were administered orally to groups of animals and the degree of protection against histamine-induced asphyxic collapse was determined by the percentage increase in mean time to asphyxic collapse of a compound-treated group to asphyxic collapse for control groups was around 80-100 seconds. […]
The significance of any increase in the mean asphyxic collapse time of a compound-treated group of animals over that of a vehicle-treated control group was determined using students "t" test. […]

Rat isolated portal vein = assay: Rat isolated portal vein: inhibition of spontaneous contractions and of contractions due to added calcium; design: species or system rat (male Sprague Dawley); settings: for IC50: Rattus norvegicus, 0.25 h, 15 min contact time, 6-9 tissues, 95% fiducial limits in next line
Method: (1) Rat isolated portal vein. Male Sprague Dawley rats (250-350 g) were killed by cervical dislocation. Portal veins (2-3cm in length) were set up under 0.8-1 g tension in a 10 ml organ bath containing Krebs-Henseleit solution, at 37° C., of the following composition (mM): NaCl 118, NaHCO3 25, glucose 5, KH2 PO4 1.18, KCl 4.69, MgSO4 0.59, CaCl2.H2 O 1.87. The tissue was aerated with a 95% oxygen and 5% carbon dioxide mixture. Isometric tension was recorded using a Devices strain gauge and recorder. Each preparation was allowed 1h to equilibrate before the addition of test compound. The ability of a compound to inhibit the contractions due to added calcium (3 mM CaCl2) was determined in tissues bathed in Krebs-Henseleit solution containing 0.05 mM CaCl2 (in order to reduce spontaneous contractions). Then percentage inhibition (mean ±s.e.m.; 6-9 tissues) of the amplitude of the spontaneous contractions, and contractions due to added calcium, was determined after 15 min contact time with test compound.
(1) Rat Isolated Portal Vein: effect of compound 1 on spontaneous contractions and those due to added calcium.
IC50 is concentration of compound reducing contractions by 50%; parenthesis indicate 95% fiducial limits.

IC50 ([1]; 30 mM KCl, 95% fiducial limits in next line, read-out: IC50 30 mM KCl contraction)	IC50 ([1]; 90 mM KCl, read-out: IC50 90 mM KCl contraction)	IC50 (Rat isolated colon)	IC50 (Rat isolated portal vein; contractions due to added calcium (3 mM CaCl2), read-out: IC50 Ca^2+ (3 mM) contractions)	IC50 (Rat isolated portal vein; spontaneous contractions, read-out: IC50 Spontaneous contractions)	Compound	effect against a high concentration of KCl ([1]; high concentration of KCl)	antagonism of contractions due to potassium ([1]; partially (low KCl) vs fully (high KCl) depolarising concentration)	activation at 100 µM ([2]; 1 × 10^-4 M)	activation at 10 µM ([2]; 1 × 10^-5 M)	activation at 30 µM ([2]; 3 × 10^-5 M)	activation at 3 µM ([2]; 3 × 10^-6 M)	Mean collapse time (conscious guinea-pig; N=5, *p < 0.05)	relative potency, spontaneous contractions vs those due to added calcium (Rat isolated portal vein; spontaneous contractions and those due to added calcium)	Mean collapse time (conscious guinea-pig; N=4, **p < 0.01)
0.51 µM	> 10 µM	0.12 mg/L (≈ 0.419 µM)	0.15 µM	0.12 µM	CC1(C)Oc2ccc(C#N)cc2[C@@H](N2CCCC2=O)[C@@H]1O (relative stereo) [Compound 1, 6-cyano-3,4-dihydro-2,2-dimethyl-trans-4-(2-oxo-1-pyrrolidinyl)-2H-benzo[b]pyran-3-ol]	effectiveness of compound 1 against a high concentration of KCl	antagonises the contractions due to a partially, but not a fully, depolarising concentration of potassium	61 ± 6%	18 ± 3%	31 ± 3%	6 ± 2%	154 ± 26 s	equipotent	–
–	–	1.7 mg/L (≈ 5.75 µM)	–	–	CC1(C)Oc2ccc(Cl)cc2[C@@H](N2CCCC2=O)[C@@H]1O (relative stereo) [Compound 2, 6-chloro-3,4-dihydro-2,2-dimethyl-trans-4-(2-oxo-1-pyrrolidinyl)-2H-benzo[b]pyran-3-ol]	–	–	–	–	–	–	–	–	–
–	–	–	–	–	CCN(C(C)=O)[C@@H]1c2cc(C#N)ccc2OC(C)(C)[C@H]1O (relative stereo) [Compound 4, trans-4-(N-acetyl)-ethylamino-6-cyano-3,4-dihydro-2,2-dimethyl-2H-benzo[b]pyran-3-ol]	–	–	–	–	–	–	–	–	176 ± 25 s
